Results on three compounds are retold here after patent publication US9669016B2, “Antiparasitic effect of Bis[3,5-Bis(Benzylidene)-4-Oxo-1-Piperidinyl]amide Derivatives” (priority 2014, dated 2017).

Where two headings read alike, the source gives them in different places.

Data set [1] deals with BALB/c intraperitoneal macrophages. Kind of data set: Viability assay (Alamar Blue) on peritoneal murine macrophages. Type of data set: cell-based. As to conditions: Mus musculus, Macrophage; read-out: Mammalian cells IC50 ± SD, Peritoneal Murine Macrophages. The procedure: Viability assay on mammalian cells and T. cruzi epimastigotes. The cytotoxicity and anti-trypanosomal activity of the NC compounds was tested in human Hs27 fibroblasts (ATCC CRL-1634), LLC-MK2 cells (ATCC CCL-7), RAW 264.7 murine macrophages (ATCC TIB71) (American Type Culture Collection-ATCC, Manassa, Va.), mice intraperitoneal macrophages and in epimastigote forms of T. cruzi Y strain using Alamar Blue assay (Invitrogen—Life Technology, Grand Island, N.Y.). The experiments were performed as described using a range of concentration of 500 μM to 1 nM.

Data set [2] concerns Leishmania major promastigotes. Kind of data set: Luciferase survival assay on L. major promastigotes. Type of data set: cell-based. The procedure: Evaluation of the NC library activity against Leishmania major. The NC library (136 compounds) was screened using firefly luciferase-expressing L. major promastigotes referred to as Lmj-FV1-LUC-TK (L. major strain Friedlin (MHOM/JL/80/Friedlin) clone V1) engineered to express luciferase following integration of the construct pIR1SAT-LUC(a)-TK(b) (strain B5113) in the rRNA locus (S. M. Hickerson and S. M. Beverley, unpublished data). Enones (stock solutions in DMSO) were diluted (1 nM to 500 μM, in a final 1% DMSO) and added (1 μl per well) to 96-well microplates using an Eppendorf epMotion 5070 automated pipetting system. Promastigotes (10^6/well) were added, and parasite survival was assessed by luciferase activity with the substrate 5′-fluoroluciferin (ONE-Glo Luciferase Assay System, Promega) after 96-h incubation at 28° C., using a luminometer (Luminoskan, Thermo). The bioluminescent intensity was a direct measure of the survival of parasites. This was determined by comparing bioluminescent intensity of L. major parasites live/dead with MTT assay and cell counting. The primary compound screens were performed as single wells.

Data set [3] concerns L. major intracellular amastigotes. Kind of data set: High-content imaging infectivity assay, L. major amastigote-infected macrophages. Type of data set: cell-based, Leishmania major. As to conditions: for most effective concentration against L. major intracellular amastigotes / IC50: 48 h treatment; for IC50: Leishmania major, Peritoneal macrophage, in Mus musculus, in BALB/c peritoneal macrophages; for percentage of infected macrophages vs 1% DMSO control: constraints 2, 5 and 8 or more amastigotes per macrophage; for effectiveness compared with positive control amphotericin B 5 μM: percentage of infected macrophages, NC901, NC884 at 5 μM. The procedure:
In vitro infectivity experiments were carried out to determine the activity of compounds NC901, NC884, and NC2459 against L. major intracellular amastigotes. Intraperitoneal macrophages isolated from BALB/c mice were infected with L. major metacyclic promastigotes. After the parasites were allowed to establish infection for 48 hours, the compounds were added and incubated for an additional 48 hours. The compounds anti-leishmanial activity was evaluated using the BD Pathway Bioimager™. In the analysis several constraints were used, such as 2, 5, and 8 or more amastigotes per macrophage.
In vitro evaluation of the NC drug library on infectivity experiments by high-content imaging assay. Mice intraperitoneal macrophages and human osteoblasts were placed in a microplate and infected with the amastigote forms of L. major strain Friedlin clone V1 and T. cruzi Y strain respectably, followed by treatment with NC lead compounds (as shown in Table 1). Briefly, Image acquisition and analyses of the plates were carried out using the BD Pathway 855 high-resolution fluorescence bioimager system (BD Biosciences). Filter sets appropriate for the excitation and emission spectra of Draq5 were utilized. Images from […] (3×3 montage) were acquired per well with a 20× objective. To perform the host cell segmentation and counting of parasites, the BD AttoVision™ v1.6.2 Sub Object analysis was used. Draq5 creates a background, staining the host cell and parasite nucleus, but defining the cytoplasm as well, determining this way the amount of parasites within each mammalian cell. The host cell nucleus was excluded by size difference. Subsequently, the infection index was calculated based on the mean of these triplicate values by multiplying the percentage of infected cells and the constraints used in the HCIA assay that was of 2, 3, 5, and 8 parasites per cell.

The test system of data set [4] is L. major metacyclic promastigotes. Kind of data set: Murine model for cutaneous leishmaniasis (footpad infection). Type of data set: in vivo, BALB/c mice. As to conditions: for footpad swelling: 10^5 L. major metacyclic promastigotes, intraperitoneal daily treatment. On the procedure:
(§1) The in vivo experiments were comprised of four groups of five mice each: (1) infected, but not treated [control for the infection—100 μL of DMSO per day, drug diluent]; (2) treated with NC884, NC901 or NC2459, but not infected with the parasites [control for drug toxicity]; (3) infected with the parasites and treated with amphotericin B (8 mg/kg/day) [reference drug; positive control]; and (4) infected with the parasites and treated with NC884, NC901 or NC2459 [experimental group]. Luciferase expressing metacyclic promastigotes L. major (Freidlin V1) were obtained as described previously. Suspensions of 1×10^5 or 1×10^6 parasites per 50 μl of sterile DMEM (endotoxin-free) were injected with a 30G needle into the left hind footpad of BALB/c mice. Two weeks post-infection the compounds were administered once a day by intraperitoneal route, daily for 14 to 17 days. Twice a week, weights were recorded to monitor toxicity and the thickness of the infected footpad and the non-infected footpad was measured with digital calipers to monitor the progression of the disease. The parasitic load also was evaluated through in vivo imaging using luminescence (Kodak Image Station). The mice were injected intra-peritoneally with 150 mg/kg D-luciferin (Sigma, USA) 10 min before imaging, anesthetized with 1-2% isofluorane in oxygen during imaging and the net intensity emitted from the footpad was quantified using the KODAK Image Station software. Parasite burden was expressed as net intensity emitted from L. major infected footpad lesions normalized against the background fluorescence of uninfected mice. The presence/absence of parasites was confirmed by PCR using L. major methionine aminopeptidase (MetAP1) 1 specific primers: 5′-[…]-3′ (SEQ ID NO:1) and 5′-[…]-3′ (SEQ ID NO:2) on cDNA reverse transcribed from total RNA extracted from footpad lysate obtained by macerating footpad tissue fragments in Trizol (Invitrogen Life Technologies, United States) with the gentleMACS™ Dissociator (Miltenyi Biotec GmbH, Germany) following the manufacturer's protocol.

In data set [5] the test system is BALB/c mice intraperitoneal macrophages. Kind of data set: Annexin V/PI assay on intraperitoneal macrophages. Type of data set: cell-based, mouse. On the procedure:
Apoptosis was evaluated using Alexa Fluor® 488 Annexin V/PI Apoptosis Kit (Initrogen™-Life technology, Grand Island, N.Y.). L. major promastigotes and BALB/c mice intraperitoneal macrophages were treated with each compound for 24 h. After exposure, the parasites (5×10^7) and macrophages (5×10^6) were harvested, washed and re-suspended with PBS. The Annexin V/PI staining of cells followed the manufacturer's instructions. Then the samples were analyzed with Beckman Coulter Fc500 flow cytometer (Beckman Coulter, USA). The results were expressed as the number of annexin positive cells per thousand cells counted.

A short description of data set [6]: Weight and toxicity monitoring in treated infected mice. Type of data set: in vivo, BALB/c mice. The note with it: for deaths as a result of compound toxicity / weight loss: 10^5 infection experiment; for weight loss: daily IP treatment. The procedure: as §1
[7] abbreviates: 96 h, read-out: estimated EC50, L. major promastigotes.
The mark [8] stands for this setting: 96 h incubation, read-out: L. major Promastigotes EC50.
Setting [9] is: same concentrations as in L. major promastigotes, 24 h.

Turning to `CN(C)CC1CCC(CN(C)C)C1=O` (centres unmarked) [NC884], the IC50 in data set [1] is 7.67 ± 0.31 µM. Further, the EC50 in data set [2] (setting [7]) is 1.12 µM. In addition, the EC50 in data set [2] (setting [8]) turned out to be 1.12 µM. Further, in data set [3], the “most effective concentration against L. major intracellular amastigotes” value (from here on “most effective concentration”) was 5 µM, half-maximal inhibition (IC50) required 0.937 ± 0.13 µM, the “percentage of infected macrophages vs 1% DMSO control” value (shortened to “percentage … vs 1% DMSO control”) is given as “significant decrease in the percentage of infected cells” and the “effectiveness compared with positive control amphotericin B 5 μM” value is given as “not as effective as the positive control amphotericin B”. Further, the footpad swelling entry in data set [4] was “reduced the footpad swelling similar to that of the positive control”. Moreover, the “annexin V positive cells in macrophages” value in data set [5] (setting [9]) is “No effect”. Moreover, in data set [6], the “deaths as a result of compound toxicity” value is “no mice died” and the weight loss entry is listed as “no significant weight loss”.
With `CN(C)CC1CCCC(CN(C)C)C1=O` (centres unmarked) [NC901], the IC50 in data set [1] turned out to be 7.03 ± 0.42 µM. Further, the EC50 in data set [2] (setting [7]) was 0.453 µM. Besides, the EC50 in data set [2] (setting [8]) worked out at 0.45 µM. Further, in data set [3], the “most effective concentration” value was 5 µM, half-maximal inhibition (IC50) required 1.87 ± 0.2 µM, the “percentage … vs 1% DMSO control” value is recorded as “significant decrease in the percentage of infected cells” and the “effectiveness compared with positive control amphotericin B 5 μM” value is listed as “not as effective as the positive control amphotericin B”. In addition, in data set [4], the footpad swelling result was “reduced the footpad swelling similar to that of the positive control”. In data set [5], the “annexin V positive cells in macrophages” value is “No effect”. For the same compound, in data set [6], the “deaths as a result of compound toxicity” value is “no mice died” and the weight loss result is given as “no significant weight loss”.
For `O=C1/C(=C/c2ccccc2)CN(C(=O)C(=O)N2C/C(=C\c3ccccc3)C(=O)/C(=C/c3ccccc3)C2)C/C1=C\c1ccccc1` [NC2459], the IC50 in data set [1] turned out to be 5.45 ± 0.36 µM. In data set [2] (setting [8]), the EC50 is 0.02 µM. Further, the EC50 in data set [2] (after a 96 hour treatment, read-out: estimated EC50, L. major promastigotes) is 0.02 µM. Moreover, in data set [3], the “most effective concentration” value was 1.25 µM, the IC50 worked out at 0.625 ± 0.11 µM, the “percentage … vs 1% DMSO control” value is given as “significant decrease in the percentage of infected cells” and the “effectiveness compared with positive control amphotericin B 5 μM” value is “significantly more effective”. In addition, the footpad swelling result in data set [4] is recorded as “much lower amount of swelling than all groups”. In addition, the “time until measurable lesions start developing” value in data set [4] (10^5 parasites) is on record as 6-7 weeks post-infection. For the same compound, in data set [4] (10^5 parasites, monitored up to twelve weeks post-infection), the “mice never developing a lesion” value is “one out of the three mice never developed a lesion”. Also, the “lesion size at 33 days post-infection” value in data set [4] (10^6 parasites, 8 mg/kg/day extended treatment, p≦0.05) is given as “significantly smaller lesion than all other groups”. The “PCR of L. major MetAP1 gene in footpad” value in data set [4] (mouse displaying no lesion) is “no traces of L. major genomic DNA”. The “annexin V positive cells in macrophages” value in data set [5] (setting [9]) is on record as “No effect”. Further, in data set [6], the “deaths as a result of compound toxicity” value is recorded as “no mice died” and the weight loss entry is recorded as “no significant weight loss”. Also, the “additional weight loss or toxic side effects compared to the control group” value in data set [6] (10^6 infection, 8 mg/kg/day extended treatment) is on record as “did not result in any additional weight loss or toxic side effects”.
